Measurements reported in US20240165281A1, “DUAL MODE RADIOTRACER AND THERAPEUTICS” (Technische Universität München, priority 2021, published 2024).

Tests used:
LNCaP tumor-bearing mice = assay: μSPECT/CT imaging with tumor uptake; type: in vivo
Protocol: Static images were recorded of sacrificed mice, 24 h p.i. directly after blood collection, with an acquisition time of 45 min using the HE-GP-RM collimator and a step-wise multi-planar bed movement. For imaging studies, a MILabs VECTor4 small-animal SPECT/PET/OI/CT from MILabs (Utrecht, Netherlands) was applied. Furthermore, data were reconstructed using the MILabs-Rec software (version 10.02) and a pixel-based Similarity-Regulated Ordered Subsets Expectation Maximization (SROSEM) algorithm with a window-based scatter correction (20% below and 20% above the photopeak, respectively). Moreover, further data analysis was accomplished using the PMOD4.0 software acquired from PMOD TECHNOLOGIES LLC (Zurich, Switzerland) at defined settings (voxel size CT: 80 μm, voxel size SPECT: 0.8 mm, 1.6 mm (FWHM) Gaussian blurring post processing filter, with calibration factor in kBq/mL and decay correction and no attenuation correction).

[1] = test system: LNCaP tumor-bearing male CB-17 SCID mice; assay: Biodistribution studies 24 h p.i.
Protocol: Approximately 3-7 MBq (0.1-0.2 nmol) of the radioactive-labelled PSMA inhibitors were injected into the tail vein of LNCaP tumor-bearing male CB-17 SCID mice and sacrificed after 24 h post injection. Selected organs were removed, weighted and measured in a γ-counter. Results are all decay corrected and given in % injected dose per gram of tissue (% iD/g). Tumor-to-organ ratios are calculated from animals' individual ratios and are given as mean±standard deviation.

[2] = mean, listed as [^177Lu]Lu-2C013

For CC(C)(C)[Si](F)(c1ccc(C(=O)NC[C@@H](NC(=O)CN2CCN(CC(=O)O)CCN(CC(=O)O)CCN(CC(=O)O)CC2)C(=O)N[C@H](CO)C(=O)NCCC(=O)NCCC(=O)NCCC[C@@H](NC(=O)CC[C@H](NC(=O)N[C@@H](CCC(=O)O)C(=O)O)C(=O)O)C(=O)O)cc1)C(C)(C)C [Compound 2C013], the “kidney uptake (FIG. 5, in words)” value (LNCaP tumor-bearing mice; 24 h p.i., versus [177Lu]rhPSMA-7.3 and [177Lu]PSMA-I&T) was “lower kidney uptake than the previously known compounds”, the “tumor uptake of the scanned mouse (FIG. 1)” value (LNCaP tumor-bearing mice; μSPECT/CT scan, single animal) was 9.8 % iD/g and the “Kidneys (24 h)” value ([1]; Table 1) was 0.95 ± 0.42 % iD/g. The “Tumor (24 h)” value ([1]; Table 1) was 7.59 ± 1.23 % iD/g, the “In vivo biodistribution (24 h p.i.) blood” value ([1]; Table 6) was 0.0013 ± 0.0007 % iA/g and the “In vivo biodistribution (24 h p.i.) kidney” value ([1]; Table 6) was 0.95 ± 0.42 % iA/g. The “In vivo biodistribution (24 h p.i.) tumor” value ([1]; Table 6) was 7.59 ± 1.23 % iA/g, the uptake in adrenals ([1]; mean) was 0.0618 % iD/g and the uptake in blood ([1]; mean) was 0.0013 % iD/g. For the same compound, the uptake in intestine ([1]; mean) was 0.3354 % iD/g, the uptake in kidney ([1]; mean) was 0.9488 % iD/g and the uptake in liver ([1]; mean) was 0.2519 % iD/g. For the same compound, the uptake in lung ([1]; mean) was 0.0438 % iD/g, the uptake in pancreas ([1]; mean) was 0.0165 % iD/g and the “uptake in parotid gl.” value ([1]; mean) was 0.0554 % iD/g. The uptake in spleen ([1]; mean) was 0.3891 % iD/g, the uptake in stomach ([1]; mean) was 0.0846 % iD/g and the uptake in tumor ([1]; mean) was 7.5897 % iD/g. For the same compound, the uptake in bone ([1]; mean, listed as [^177Lu]2C013) was 0.037 % iD/g, the uptake in heart ([1]; mean, listed as [^177Lu]2C013) was 0.019 % iD/g and the uptake in muscle ([1]; mean, listed as [^177Lu]2C013) was 0.004 % iD/g. For the same compound, the “uptake in submand. gl.” value ([1]; mean, listed as [^177Lu]2C013) was 0.036 % iD/g, the uptake in bone [1, 2] was 0.0370 % iD/g and the uptake in heart [1, 2] was 0.0190 % iD/g. For the same compound, the uptake in muscle [1, 2] was 0.0040 % iD/g, the “uptake in submand. gl.” value [1, 2] was 0.0360 % iD/g and the tumor-to-organ ratio adrenals ([1]; n = 4, mean) was 131.27. It also gave a tumor-to-organ ratio blood ([1]; n = 4, mean) of 6891.48, a tumor-to-organ ratio bone ([1]; n = 4, mean) of 208.29 and a tumor-to-organ ratio heart ([1]; n = 4, mean) of 403.61. The tumor-to-organ ratio intestine ([1]; n = 4, mean) was 60.29, the tumor-to-organ ratio kidney ([1]; n = 4, mean) was 9.04 and the tumor-to-organ ratio liver ([1]; n = 4, mean) was 31.82. For the same compound, the tumor-to-organ ratio lung ([1]; n = 4, mean) was 189.80, the tumor-to-organ ratio muscle ([1]; n = 4, mean) was 2075.70 and the tumor-to-organ ratio pancreas ([1]; n = 4, mean) was 492.10. For the same compound, the “tumor-to-organ ratio parotid gl.” value ([1]; n = 4, mean) was 140.11, the tumor-to-organ ratio spleen ([1]; n = 4, mean) was 21.03 and the tumor-to-organ ratio stomach ([1]; n = 4, mean) was 145.92. For the same compound, the “tumor-to-organ ratio submand. gl.” value ([1]; n = 4, mean) was 211.04, the Activity accumulation adrenals ([1]; repeated dataset, n = 5, mean) was 0.1327 % ID/g and the Activity accumulation blood ([1]; repeated dataset, n = 5, mean) was 0.0016 % ID/g. It also gave an Activity accumulation bone ([1]; repeated dataset, n = 5, mean) of 0.1331 % ID/g, an Activity accumulation heart ([1]; repeated dataset, n = 5, mean) of 0.023 % ID/g and an Activity accumulation intestine ([1]; repeated dataset, n = 5, mean) of 0.0615 % ID/g. For the same compound, the Activity accumulation kidney ([1]; repeated dataset, n = 5, mean) was 1.0833 % ID/g, the Activity accumulation liver ([1]; repeated dataset, n = 5, mean) was 0.3202 % ID/g and the Activity accumulation lung ([1]; repeated dataset, n = 5, mean) was 0.0548 % ID/g. The Activity accumulation muscle ([1]; repeated dataset, n = 5, mean) was 0.0056 % ID/g, the Activity accumulation pancreas ([1]; repeated dataset, n = 5, mean) was 0.0173 % ID/g and the “Activity accumulation parotid gl.” value ([1]; repeated dataset, n = 5, mean) was 0.063 % ID/g. The Activity accumulation spleen ([1]; repeated dataset, n = 5, mean) was 0.4246 % ID/g, the Activity accumulation stomach ([1]; repeated dataset, n = 5, mean) was 0.0349 % ID/g and the “Activity accumulation submand. gl.” value ([1]; repeated dataset, n = 5, mean) was 0.038 % ID/g. It also gave an Activity accumulation tumor ([1]; repeated dataset, n = 5, mean) of 10.1512 % ID/g, a tumor-to-organ ratio adrenals ([1]; repeated dataset, n = 5, mean) of 78.58 and a tumor-to-organ ratio blood ([1]; repeated dataset, n = 5, mean) of 6950.64. For the same compound, the tumor-to-organ ratio bone ([1]; repeated dataset, n = 5, mean) was 73.24, the tumor-to-organ ratio heart ([1]; repeated dataset, n = 5, mean) was 475.05 and the tumor-to-organ ratio intestine ([1]; repeated dataset, n = 5, mean) was 263.86. The tumor-to-organ ratio kidney ([1]; repeated dataset, n = 5, mean) was 9.48, the tumor-to-organ ratio liver ([1]; repeated dataset, n = 5, mean) was 31.51 and the tumor-to-organ ratio lung ([1]; repeated dataset, n = 5, mean) was 184.32. For the same compound, the tumor-to-organ ratio muscle ([1]; repeated dataset, n = 5, mean) was 1867.35, the tumor-to-organ ratio pancreas ([1]; repeated dataset, n = 5, mean) was 587.5 and the “tumor-to-organ ratio parotid gl.” value ([1]; repeated dataset, n = 5, mean) was 172.33. The tumor-to-organ ratio spleen ([1]; repeated dataset, n = 5, mean) was 25.43, the tumor-to-organ ratio stomach ([1]; repeated dataset, n = 5, mean) was 286.18 and the “tumor-to-organ ratio submand. gl.” value ([1]; repeated dataset, n = 5, mean) was 270.92. The T/K-ratio ([1]; tumor/kidney, Table 1) was 9.04 ± 3.09.
